# Data: ChEMBL document CHEMBL3227994, “Novel application of proton nuclear magnetic resonance spectroscopy in the identification of 2'-chloronordiazepam metabolites in the dog” (J Med Chem, 1979)
# Legend:
# [1] = Retention time of the compound; assay type: physicochemical
# [2] = Drug excretion in Beagle dog urine at 10 mg/kg, po measured within 6 days by liquid scintillation spectrophotometric analysis; assay type: ADME, organism-based, Canis lupus familiaris; set-up: dose 10 mg/kg, route oral; details: in vivo, 144 h
# [3] = Drug excretion in Beagle dog feces assessed as nonconjugated form of compound at 10 mg/kg, po after 4 days by two-dimensional TLC analysis; assay type: ADME, organism-based, Canis lupus familiaris; set-up: dose 10 mg/kg, route oral; details: faeces, read-out: Drug excretion
# [4] = Drug excretion in dog urine assessed as conjugated form of lorazepam at 10 mg/kg, iv; assay type: ADME, organism-based, Canis lupus familiaris; set-up: dose 10 mg/kg, route intravenous; details: in vivo
# [5] = Drug excretion in Beagle dog urine assessed as nonconjugated form of 2'-chloro-4'-hydroxy nordiazepam at 10 mg/kg, po after 4 days by two-dimensional TLC analysis; assay type: ADME, organism-based, Canis lupus familiaris; set-up: dose 10 mg/kg, route oral; details: in vivo, 96 h
# [6] = Drug metabolism in Beagle dog urine assessed as formation of 2'-chloro-9-hydroxy nordiazepam at 10 mg/kg, po after 4 days by TLC analysis; assay type: ADME, organism-based, Canis lupus familiaris; set-up: dose 10 mg/kg, route oral; details: in vivo, 96 h
# [7] = Drug excretion in Beagle dog urine assessed as nonconjugated form of 2'-chloro-9-hydroxy nordiazepam at 10 mg/kg, po after 4 days by two-dimensional TLC analysis; assay type: ADME, organism-based, Canis lupus familiaris; set-up: dose 10 mg/kg, route oral; details: in vivo, 96 h
# [8] = Drug excretion in Beagle dog urine assessed as conjugated form of 2'-chloro-9-hydroxy nordiazepam at 10 mg/kg, po after 4 days by two-dimensional TLC analysis; assay type: ADME, organism-based, Canis lupus familiaris; set-up: dose 10 mg/kg, route oral; details: in vivo, 96 h
# [9] = Drug excretion in Beagle dog urine assessed as conjugated form of 2'-chloro-4'-hydroxy nordiazepam at 10 mg/kg, po after 4 days by two-dimensional TLC analysis; assay type: ADME, organism-based, Canis lupus familiaris; set-up: dose 10 mg/kg, route oral; details: in vivo, 96 h
# [10] = Drug excretion in Beagle dog feces assessed as nonconjugated form of 2'-chloro-9-hydroxy nordiazepam at 10 mg/kg, po after 4 days by two-dimensional TLC analysis; assay type: ADME, organism-based, Canis lupus familiaris; set-up: dose 10 mg/kg, route oral; details: in vivo, 96 h
# [11] = Drug excretion in dog urine assessed as conjugated form of lorazepam at 10 mg/kg, po; assay type: ADME, organism-based, Canis lupus familiaris; set-up: dose 10 mg/kg, route oral; details: in vivo
# [12] = Drug metabolism in Beagle dog urine assessed as formation of 2'-chloro-4'-hydroxy nordiazepam at 10 mg/kg, po after 4 days by TLC analysis; assay type: ADME, organism-based, Canis lupus familiaris; set-up: dose 10 mg/kg, route oral; details: in vivo, 96 h
# [13] = Drug excretion in Beagle dog urine at 10 mg/kg, po measured within 3 days by liquid scintillation spectrophotometric analysis; assay type: ADME, organism-based, Canis lupus familiaris; set-up: dose 10 mg/kg, route oral; details: in vivo, 72 h
# [14] = Drug excretion in Beagle dog feces assessed as conjugated form of 2'-chloro-4'-hydroxy nordiazepam at 10 mg/kg, po after 4 days by two-dimensional TLC analysis; assay type: ADME, organism-based, Canis lupus familiaris; set-up: dose 10 mg/kg, route oral; details: in vivo, 96 h
# [15] = Drug excretion in Beagle dog urine assessed as conjugated form of lorazepam at 10 mg/kg, po after 4 days by two-dimensional TLC analysis; assay type: ADME, organism-based, Canis lupus familiaris; set-up: dose 10 mg/kg, route oral; details: in vivo, 96 h
# [16] = Drug excretion in Beagle dog feces assessed as nonconjugated form of 2'-chloro-4'-hydroxy nordiazepam at 10 mg/kg, po after 4 days by two-dimensional TLC analysis; assay type: ADME, organism-based, Canis lupus familiaris; set-up: dose 10 mg/kg, route oral; details: in vivo, 96 h
# [17] = Drug excretion in Beagle dog feces assessed as nonconjugated form of lorazepam at 10 mg/kg, po after 4 days by two-dimensional TLC analysis; assay type: ADME, organism-based, Canis lupus familiaris; set-up: dose 10 mg/kg, route oral; details: in vivo, 96 h
# [18] = Drug metabolism in Beagle dog urine assessed as formation of lorazepam at 10 mg/kg, po after 4 days by TLC analysis; assay type: ADME, organism-based, Canis lupus familiaris; set-up: dose 10 mg/kg, route oral; details: in vivo, 96 h
# [19] = Drug excretion in Beagle dog urine assessed as nonconjugated form of compound at 10 mg/kg, po after 4 days by two-dimensional TLC analysis; assay type: ADME, organism-based, Canis lupus familiaris; set-up: dose 10 mg/kg, route oral; details: read-out: Drug excretion
# [20] = Drug excretion in Beagle dog feces at 10 mg/kg, po measured within 6 days by liquid scintillation spectrophotometric analysis; assay type: ADME, organism-based, Canis lupus familiaris; set-up: dose 10 mg/kg, route oral; details: in vivo, 144 h
# [21] = Drug excretion in Beagle dog urine assessed as nonconjugated form of lorazepam at 10 mg/kg, po after 4 days by two-dimensional TLC analysis; assay type: ADME, organism-based, Canis lupus familiaris; set-up: dose 10 mg/kg, route oral; details: in vivo, 96 h
# [22] = Drug excretion in Beagle dog feces assessed as conjugated form of lorazepam at 10 mg/kg, po after 4 days by two-dimensional TLC analysis; assay type: ADME, organism-based, Canis lupus familiaris; set-up: dose 10 mg/kg, route oral; details: in vivo, 96 h
# [23] = Drug excretion in Beagle dog feces assessed as conjugated form of 2'-chloro-9-hydroxy nordiazepam at 10 mg/kg, po after 4 days by two-dimensional TLC analysis; assay type: ADME, organism-based, Canis lupus familiaris; set-up: dose 10 mg/kg, route oral; details: in vivo, 96 h
# [24] = Drug excretion in Beagle dog feces assessed as conjugated form of compound at 10 mg/kg, po after 4 days by two-dimensional TLC analysis; assay type: ADME, organism-based, Canis lupus familiaris; set-up: dose 10 mg/kg, route oral; details: in vivo, 96 h
smiles,measurement,setting,value
O=C1Nc2ccc(Cl)cc2C(c2ccccc2Cl)=NC1O (centres undefined) [LORAZEPAM],Retention_time,[1],3.8 min
O=C1CN=C(c2ccccc2Cl)c2cc(Cl)ccc2N1 [DELORAZEPAM],Drug excretion,[2],60.5 %ID
same,dose excreted at 96 h,[3],2.7%
same,Drug excretion,[4],16 %ID
same,Drug excretion,[5],1 %ID
same,Drug metabolism,[6],1.7 mg.equiv
same,Drug excretion,[7],1.1 %ID
same,Drug excretion,[8],2.5 %ID
same,Drug excretion,[9],2.8 %ID
same,Drug excretion,[10],3.7 %ID
same,Drug excretion,[11],13 %ID
same,Drug metabolism,[12],1.6 mg.equiv
same,Drug excretion,[13],58 %ID
same,Drug excretion,[14],5.3 %ID
same,Drug excretion,[15],15.3 %ID
same,Drug excretion,[16],1.5 %ID
same,Drug excretion,[17],4.2 %ID
same,Drug metabolism,[18],10.7 mg.equiv
same,dose excreted at 96 h,[19],1.1%
same,Drug excretion,[20],28.5 %ID
same,Drug excretion,[21],0.4 %ID
same,Drug excretion,[22],19.9 %ID
same,Drug excretion,[23],7.3 %ID
same,Drug excretion,[24],3.8 %ID
